Tests used:
human recombinant TACE = biological target: T1, human recombinant TACE (Homo sapiens, UniProt P78536); test: TACE fluorometric assay; assay type: biochemical
T1 construct: purchased R&D Systems (Minneapolis, MN, USA)
Method: A human recombinant TACE (0.1 ppm in 25 mM Tris buffer), the substrate (APP peptide […] using EDANS/DABCYL), and baicalein were dissolved in an assay buffer and then combined and incubated for 60 min in the dark at 25 °C.

trypsin = test: Trypsin colorimetric assay; assay type: biochemical; conditions: for Inhibitory activity against Trypsin: mean ± SD
Method: (§1) The colorimetric assays of AChE, trypsin, chymotrypsin, and elastase were carried out using acetylthiocholine iodide, […], and N-succinyl-Ala-Ala-Ala-pNA as substrates, respectively. The hydrolysis of AChE was monitored according to the formation of yellow 5-thio-2-nitrobenzoate anions at 405 nm for 15 min, which were produced by the reaction of DTNB with thiocholine released from ACh. All reactions were performed in 96-well plates in triplicate and recorded using a microplate spectrophotometer.
(§2) For trypsin, chymotrypsin, and elastase assays, enzyme, Tris-HCl buffer (0.05 M, in 0.02 M CaCl2, pH 8.2), and baicalein were incubated for 10 min at 25 °C; then, substrate was added for 30 min at 37 °C. The absorbance was recorded at 410 nm. The inhibition ratio was obtained using the following equation:Inhibition (%) = {[1 − (A − B)]/control} × 100 where A was the absorbance of the control (enzyme, assay buffer, and substrate) after 60 min of incubation, and B was the absorbance of tested sample (assay buffer and sample solution) after 60 min of incubation.

chymotrypsin = biological target: T2, chymotrypsin (Bos taurus, UniProt P00766); test: Chymotrypsin colorimetric assay; assay type: biochemical
T2 construct: purchased Sigma-Aldrich (St. Louis, MO, USA)
Method: as §1, §2

elastase = biological target: T3, elastase (Sus scrofa, UniProt P00772); test: Elastase colorimetric assay; assay type: biochemical
T3 construct: purchased Sigma-Aldrich (St. Louis, MO, USA)
Method: as §1, §2

AChE = AChE (Electrophorus electricus, UniProt O42275); conditions: Dixon and Lineweaver–Burk plots
Method: The colorimetric assays of AChE, trypsin, chymotrypsin, and elastase were carried out using acetylthiocholine iodide, N-benzoyl-L-Tyr-pNA, N-benzoyl-L-Arg-pNA, and N-succinyl-Ala-Ala-Ala-pNA as substrates, respectively. […] All reactions were performed in 96-well plates in triplicate and recorded using a microplate spectrophotometer.
The inhibitory constant (Ki) was obtained by interpretation of the Dixon plot, and maximum reaction velocity (Vmax) and Michaelis–Menten constant (Km) values were determined by a Lineweaver–Burk plot, using the initial velocities obtained over a different substrate concentration ranges.

Tg2576 mice = test system: Tg2576 mice; set-up: method as in PMID 23686791; conditions: 10 mg/kg; cited from earlier work
APP/PS1 mice = conditions: 80 mg/kg; cited from earlier work
[1] = test system: AlCl3-induced AD mouse model; conditions: cited from earlier work
[2] = set-up: method as in doi:10.1016/j.arabjc.2017.08.002; conditions: chemical scavenging and cellular antioxidant ability among flavonoids of S. baicalensis; cited from earlier work
[3] = cited from earlier work
[4] = rat, oral S. baicalensis extract 30 mg/kg; cited from earlier work
[5] = humans, 2.8 mg single dose; cited from earlier work
BACE1 = test system: BACE1; set-up: method as in PMID 24291393; conditions: cited from earlier work

T3 sequence (P00772 27-266): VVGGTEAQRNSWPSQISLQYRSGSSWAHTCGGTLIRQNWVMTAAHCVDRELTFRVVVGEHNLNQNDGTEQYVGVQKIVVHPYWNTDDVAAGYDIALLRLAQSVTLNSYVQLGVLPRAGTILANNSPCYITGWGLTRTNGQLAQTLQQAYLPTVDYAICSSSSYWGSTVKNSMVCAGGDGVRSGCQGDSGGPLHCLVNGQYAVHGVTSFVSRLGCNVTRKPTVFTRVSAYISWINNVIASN
T1 sequence (P78536 215-824): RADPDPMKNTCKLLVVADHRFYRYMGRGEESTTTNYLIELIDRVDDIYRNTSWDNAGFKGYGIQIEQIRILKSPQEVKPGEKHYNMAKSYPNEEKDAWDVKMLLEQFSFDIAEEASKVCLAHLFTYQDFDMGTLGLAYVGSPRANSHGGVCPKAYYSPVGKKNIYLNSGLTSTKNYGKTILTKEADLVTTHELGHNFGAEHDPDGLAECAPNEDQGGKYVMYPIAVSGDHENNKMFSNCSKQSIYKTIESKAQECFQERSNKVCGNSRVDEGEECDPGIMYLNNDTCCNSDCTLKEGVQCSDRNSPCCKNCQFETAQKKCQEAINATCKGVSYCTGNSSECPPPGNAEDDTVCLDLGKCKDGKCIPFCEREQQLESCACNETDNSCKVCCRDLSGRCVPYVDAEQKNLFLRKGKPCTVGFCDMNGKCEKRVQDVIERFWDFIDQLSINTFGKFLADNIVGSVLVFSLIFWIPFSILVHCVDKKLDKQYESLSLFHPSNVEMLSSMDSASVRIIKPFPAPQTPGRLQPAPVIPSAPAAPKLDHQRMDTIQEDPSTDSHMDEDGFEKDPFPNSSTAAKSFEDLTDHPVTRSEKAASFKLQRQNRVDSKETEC
AChE, sequence (O42275 24-633): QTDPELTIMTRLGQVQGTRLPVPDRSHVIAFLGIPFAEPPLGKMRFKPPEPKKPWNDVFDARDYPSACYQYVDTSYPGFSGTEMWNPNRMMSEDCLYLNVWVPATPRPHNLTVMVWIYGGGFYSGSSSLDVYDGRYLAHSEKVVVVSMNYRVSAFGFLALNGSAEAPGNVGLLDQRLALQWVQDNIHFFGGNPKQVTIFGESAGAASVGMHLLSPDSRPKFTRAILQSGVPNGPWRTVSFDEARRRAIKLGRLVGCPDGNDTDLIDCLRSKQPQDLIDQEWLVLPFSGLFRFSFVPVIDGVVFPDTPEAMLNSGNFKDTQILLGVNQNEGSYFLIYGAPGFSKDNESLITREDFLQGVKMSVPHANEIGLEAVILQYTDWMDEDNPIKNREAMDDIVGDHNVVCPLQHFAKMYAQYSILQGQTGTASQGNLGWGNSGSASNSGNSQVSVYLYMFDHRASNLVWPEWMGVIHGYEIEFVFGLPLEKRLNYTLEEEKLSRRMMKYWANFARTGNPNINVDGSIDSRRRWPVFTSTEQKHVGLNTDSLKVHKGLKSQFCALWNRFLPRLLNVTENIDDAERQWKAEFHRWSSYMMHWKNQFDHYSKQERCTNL

O=c1cc(-c2ccccc2)oc2cc(O)c(O)c(O)c12 [Baicalein, 5,6,7-trihydroxyflavone]
inhibition at 50 µM (human recombinant TACE; baicalein 50 μM, mean ± SD, read-out: Inhibitory activity against TACE): 8.31 ± 0.89%
inhibition at 100 µM (human recombinant TACE; baicalein 100 μM, mean ± SD, read-out: Inhibitory activity against TACE): 9.45 ± 0.71%
Inhibitory activity against TACE (in words) (human recombinant TACE; up to 100 µM): no significant inhibitory activity
Inhibitory activity against Trypsin (trypsin; baicalein 50 μM): 3.40 ± 0.76%
Inhibitory activity against Trypsin (trypsin; baicalein 100 μM): −6.95 ± 0.87%
Inhibitory activity against trypsin (in words) (trypsin; up to 100 µM): no significant inhibitory activity
inhibition at 50 µM (chymotrypsin; baicalein 50 μM, mean ± SD, read-out: Inhibitory activity against Chymotrypsin): 8.42 ± 0.76%
inhibition at 100 µM (chymotrypsin; baicalein 100 μM, mean ± SD, read-out: Inhibitory activity against Chymotrypsin): 4.48 ± 0.76%
Inhibitory activity against chymotrypsin (in words) (chymotrypsin; up to 100 µM): no significant inhibitory activity
inhibition at 50 µM (elastase; baicalein 50 μM, mean ± SD, read-out: Inhibitory activity against Elastase): 10.3 ± 1.04%
inhibition at 100 µM (elastase; baicalein 100 μM, mean ± SD, read-out: Inhibitory activity against Elastase): 9 ± 0.45%
Inhibitory activity against elastase (in words) (elastase; up to 100 µM): no significant inhibitory activity
AChE Inhibition Type (AChE): Competitive
Cognitive performance (Tg2576 mice): significantly improves
LOX and GSK3β activity (APP/PS1 mice): inhibits LOX and GSK3β activity
Behavioral dysfunction [1]: improved
Antioxidant ability [2]: most powerful antioxidant effect
Time to cross the BBB after administration ([3]; 30 mg/kg): about half an hour
BBB penetration ([3]; rat, 30 and 60 mg/kg through the femoral vein): rapidly penetrated the BBB
Brain-to-plasma ratio compared with baicalin [4]: twenty times higher
Toxicity after single-dose administration [5]: no signs of toxicity

O=c1cc(-c2ccccc2)oc2cc(O)cc(O)c12 [Chrysin, reference compound]
Antioxidant ability [2]: much weaker antioxidant ability

O=c1cc(-c2ccc(O)cc2)oc2cc(O)cc(O)c12 [Apigenin, 4′,5,7-trihydroxyflavone]
IC50 (BACE1): > 100 µM

— paper PMC6893645, “Baicalein as a Potential Inhibitor against BACE1 and AChE: Mechanistic Comprehension through In Vitro and Computational Approaches” (Nutrients, 2019)
